Common to all, as to experiment: Spore germination test
Holding throughout (assay type): cell-based

In assay [1] the test system is Botrytis cinerea. To be noted: BC, 48 hours. Put shortly:
(§1)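 Compound was delivered in acetone into water agar at final 40, 10, 2.5 and 1 ppm. Alternaria solani and Botrytis cinerea spores were applied as sterile-water suspensions, while Erysiphe polygoni and Uromyces phaseoli spores were brushed on from infected leaves. After 48 h at 24° C., percentage germination was converted to a rating.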

The test system of assay [2] is Erysiphe polygoni. To be noted: EP, 48 hours. Put shortly:
as §1

Assay [3] deals with Alternaria solani. To be noted: AS, 48 hours. Put shortly: as §1

SMILES strings stand for the structures.

Regarding `Cc1cc(Cl)ccc1Oc1nsnc(Cl)c1=O` [Compound 55, 3-chloro-5-(4-chloro-2-methylphenoxy)-4H--1,2,6-thiadiazin-4-one], the “Spore Germination Rating” value is on record as 4 (80-100) in assay [1] (1.0 ppm); 3 (60-80) in assay [1] (2.5 ppm); 1 (10-40) in assay [1] (10 ppm); 1 (10-40) in assay [1] (40 ppm); 1 (10-40) in assay [2] (1.0 ppm); 0 (0-10) in assay [2] (2.5 ppm). The “Spore Germination Rating” value is listed as 0 (0-10) in assay [2] (10 ppm); 1 (10-40) in assay [2] (40 ppm); 4 (80-100) in assay [3] (1.0 ppm); 2 (40-60) in assay [3] (2.5 ppm); 1 (10-40) in assay [3] (10 ppm); 0 (0-10) in assay [3] (40 ppm).
For the compound `Cc1ccc(Cl)c(Oc2nsnc(Cl)c2=O)c1` [Compound 56, 3-chloro-5-[(2-chloro-5-methyl)phenoxy]-4H--1,2,6-thiadiazin-4-one], the “Spore Germination Rating” value in assay [1] (1.0 ppm) was 4 (80-100); in assay [1] (2.5 ppm) it was 0 (0-10); in assay [1] (10 ppm), 0 (0-10); in assay [1] (40 ppm), 0 (0-10); in assay [2] (1.0 ppm) it was 4 (80-100); in assay [2] (2.5 ppm), 2 (40-60). Also, the “Spore Germination Rating” value is given as 0 (0-10) in assay [2] (10 ppm); 0 (0-10) in assay [2] (40 ppm); 4 (80-100) in assay [3] (1.0 ppm); 3 (60-80) in assay [3] (2.5 ppm); 0 (0-10) in assay [3] (10 ppm); 0 (0-10) in assay [3] (40 ppm).
Turning to `Cc1ccc(Oc2nsnc(Cl)c2=O)c(Br)c1` [Compound 57, 3-[(2-bromo-4-methyl)-phenoxy]-5-chloro-4H--1,2,6-thiadiazin-4-one], the “Spore Germination Rating” value in assay [1] (1.0 ppm) was 3 (60-80); in assay [1] (2.5 ppm), 1 (10-40); in assay [1] (10 ppm) it was 0 (0-10); in assay [1] (40 ppm), 0 (0-10); in assay [2] (1.0 ppm), 4 (80-100); in assay [2] (2.5 ppm) it was 0 (0-10). In addition, the “Spore Germination Rating” value in assay [2] (10 ppm) is on record as 0 (0-10); in assay [2] (40 ppm), 0 (0-10); in assay [3] (1.0 ppm), 4 (80-100); in assay [3] (2.5 ppm), 2 (40-60); in assay [3] (10 ppm) it was 0 (0-10); in assay [3] (40 ppm), 0 (0-10).
`Cc1cc(Cl)c(Oc2nsnc(Cl)c2=O)cc1C` [Compound 58, 3-chloro-5-[(2-chloro-4,5-dimethyl)phenoxy]-4H--1,2,6-thiadiazin-4-one]: the “Spore Germination Rating” value is given as 3 (60-80) in assay [1] (1.0 ppm); 0 (0-10) in assay [1] (2.5 ppm); 0 (0-10) in assay [1] (10 ppm); 0 (0-10) in assay [1] (40 ppm); 4 (80-100) in assay [2] (1.0 ppm); 0 (0-10) in assay [2] (2.5 ppm). In addition, the “Spore Germination Rating” value in assay [2] (10 ppm) is recorded as 0 (0-10); in assay [2] (40 ppm) it was 0 (0-10); in assay [3] (1.0 ppm), 4 (80-100); in assay [3] (2.5 ppm), 3 (60-80); in assay [3] (10 ppm), 0 (0-10); in assay [3] (40 ppm), 0 (0-10).
For `Cc1cc(Oc2nsnc(Cl)c2=O)cc(C)c1Cl` [Compound 59, 3-chloro-5-[(4-chloro-3,5-dimethyl)phenoxy]-4H--1,2,6-thiadiazin-4-one], the “Spore Germination Rating” value in assay [1] (1.0 ppm) was 4 (80-100); in assay [1] (2.5 ppm) it was 4 (80-100); in assay [1] (10 ppm), 4 (80-100); in assay [1] (40 ppm), 3 (60-80); in assay [2] (1.0 ppm), 2 (40-60); in assay [2] (2.5 ppm), 1 (10-40). Moreover, the “Spore Germination Rating” value in assay [2] (10 ppm) is given as 1 (10-40); in assay [2] (40 ppm), 1 (10-40); in assay [3] (1.0 ppm), 4 (80-100); in assay [3] (2.5 ppm), 4 (80-100); in assay [3] (10 ppm) it was 4 (80-100); in assay [3] (40 ppm), 4 (80-100).
`Cc1cc(Oc2nsnc(Cl)c2=O)cc(C)c1Br` [Compound 60, 3-[(4-bromo-3,5-dimethyl)-phenoxy]-5-chloro-4H--1,2,6-thiadiazin-4-one]: the “Spore Germination Rating” value in assay [1] (1.0 ppm) is 4 (80-100); in assay [1] (2.5 ppm), 3 (60-80); in assay [1] (10 ppm) it was 3 (60-80); in assay [1] (40 ppm), 3 (60-80); in assay [2] (1.0 ppm) it was 2 (40-60); in assay [2] (2.5 ppm), 1 (10-40). The “Spore Germination Rating” value in assay [2] (10 ppm) is 1 (10-40); in assay [2] (40 ppm), 0 (0-10); in assay [3] (1.0 ppm) it was 4 (80-100); in assay [3] (2.5 ppm), 4 (80-100); in assay [3] (10 ppm), 4 (80-100); in assay [3] (40 ppm), 3 (60-80).
Regarding `COc1cc(Oc2nsnc(Cl)c2=O)cc(OC)c1C(C)=O` [Compound 61, 3-[(4-acetyl-3,5-dimethoxy)-phenoxy]-5-chloro-4H--1,2,6-thiadiazin-4-one], the “Spore Germination Rating” value in assay [1] (1.0 ppm) is 4 (80-100); in assay [1] (2.5 ppm), 4 (80-100); in assay [1] (10 ppm), 3 (60-80); in assay [1] (40 ppm), 2 (40-60); in assay [2] (1.0 ppm), 1 (10-40); in assay [2] (2.5 ppm), 1 (10-40). The “Spore Germination Rating” value is 1 (10-40) in assay [2] (10 ppm); 0 (0-10) in assay [2] (40 ppm); 4 (80-100) in assay [3] (1.0 ppm); 3 (60-80) in assay [3] (2.5 ppm); 2 (40-60) in assay [3] (10 ppm); 2 (40-60) in assay [3] (40 ppm).

The values above are taken from patent US4450269A, “Mono-5-substituted-3-chloro-4H-1,2,6-thiadiazin-4-one antifungal agents” (FMC Corporation, priority 1980, dated 1984).
